Experimental data from patent US20160102052A1, “Use of Cysteamine in Treating Infections caused by Yeasts/Moulds” (priority 2014, published 2016).

Tested on: Exophiala dermatitidis CA01
Test: Broth microdilution chequerboard analysis of Lynovex (NM001) in combination with clinical antifungals
Format: cell-based
Settings: 35° C.; for MIC50: Exophiala dermatitidis, NM001 in isolation
Experimental: The aim of the experiment was to determine the effect of Lynovex (NM001) on the antifungal drug susceptibility of Exophiala dermatitidis CA01. Microtitre plates were prepared following CLSI recommendations for broth microdilution chequerboard method. These plates contained a serial doubling dilution of Lynovex (NM001) combined with serial doubling dilutions of antifungals drugs; Fluconazole, Itraconazole, Caspofungin and Amphotericin B. […] These were incubated at 35° C. and read at 72 h, 96 h, 120 h and 144 h on the BioTek plate reader. […] Three independent E. dermatitidis CA01 cultures were grown on PDA slope for 6 days at 35° C. • 7. Cultures were removed from incubator. 2 ml sterile 0.15M NaCl added to the overnight culture and cells harvested from the surface of the agar. Cells placed in fresh bijou tube. • 8. The cultures were allowed to rest for up to 10 minutes, allowing any hyphae to settle to the bottom. The top layer of conidia was removed into fresh bijou. Hyphae were discarded. • 9. […] This is continued to F12 where 100 μl is removed and discarded. • f. This dilution series was repeated in rows G-H for the remaining 2 cultures • g. Plate read at OD530 on BioTek • h. […] This preparation step occurs in two parts. First, Lynovex (NM001) and antifungals are serially diluted, down and across microtitre plates, respectively. Equal volumes of Lynovex and antifungal are then combined in a fresh microtitre plate, prior to inoculation. […] Stock solutions of Lynovex and antifungals were prepared at 4× desired concentrations. The plate layout at the end of this protocol is the final concentration in the plate following the combination of Lynovex and antifungals and the addition of the inocula. […] All other wells contain 150 μl sterile dH2O. • 9. Serial doubling dilutions are carried out from A to B whereby 150 μl is removed from A and placed into B and mixed well. Then take 150 μl B and place in C and mix well. This is repeated down to row G where the final 150 μl is discarded. […] The same procedure is repeated for the other 4 antifungals, carrying the dilutions across the plate i.e. […] At the final dilution in column 10, the final 150 μl is discarded. […] Inoculating Plates with E. dermatitidis CA01 • 6. Add 100 μl (total volume 200 μl) of the prepared E. dermatitidis CA01 culture to the all wells on the plate except wells H12. […] H12 will contain 100 μl water and 100 μl 2×RPMI-1640 alone, constituting an uninoculated control. • 8. The plate is read in the BioTek at OD530. • 9. Plates are then placed in a plastic box containing a Petri dish of water, sealed and incubated at 35° C. The presence of the water in the dish or on the tissue provides and environment of relatively high humidity. • 10. OD530 is then read at 72 h, 96 h, 120 h and 144 h and raw data processed using Microsoft Excel. • 11. Fractional Inhibitory Concentration (FIC) Index values are generated using MIC100 for 72 h data and MIC50 for later time points using the following formula: […]

NCCS [NM001, cysteamine]
MIC50 (CA01, 72 h, GEOMEAN, Amphotericin B chequerboard, 72 h): 461 µg/mL | MIC50 (CA01, 72 h, GEOMEAN, Caspofungin chequerboard, 72 h): 1250 µg/mL | MIC50 (CA01, 72 h, GEOMEAN, Fluconazole chequerboard, 72 h): 1250 µg/mL | MIC50 (CA01, 72 h, GEOMEAN, Itraconazole chequerboard, 72 h): 1250 µg/mL | MIC50 (CA01, 72 h, MEAN, Amphotericin B chequerboard, 72 h): 667 µg/mL | MIC50 (CA01, 72 h, MEAN, Caspofungin chequerboard, 72 h): 1460 µg/mL | MIC50 (CA01, 72 h, MEAN, Fluconazole chequerboard, 72 h): 1250 µg/mL | MIC50 (CA01, 72 h, MEAN, Itraconazole chequerboard, 72 h): 1510 µg/mL | MIC50 (CA01, 72 h, Range, Amphotericin B chequerboard, 72 h): 125 to 1250 µg/mL | MIC50 (CA01, 72 h, Range, Caspofungin chequerboard, 72 h): 625 to 2500 µg/mL | MIC50 (CA01, 72 h, Range, Fluconazole chequerboard, 72 h): 1250 µg/mL | MIC50 (CA01, 72 h, Range, Itraconazole chequerboard, 72 h): 312 to 2500 µg/mL | MIC50 (CA01, 96 h, GEOMEAN, Amphotericin B chequerboard, 96 h): 625 µg/mL | MIC50 (CA01, 96 h, GEOMEAN, Caspofungin chequerboard, 96 h): 1090 µg/mL | MIC50 (CA01, 96 h, GEOMEAN, Fluconazole chequerboard, 96 h): 787 µg/mL | MIC50 (CA01, 96 h, GEOMEAN, Itraconazole chequerboard, 96 h): 1130 µg/mL | MIC50 (CA01, 96 h, MEAN, Amphotericin B chequerboard, 96 h): 885 µg/mL | MIC50 (CA01, 96 h, MEAN, Caspofungin chequerboard, 96 h): 1530 µg/mL | MIC50 (CA01, 96 h, MEAN, Fluconazole chequerboard, 96 h): 885 µg/mL | MIC50 (CA01, 96 h, MEAN, Itraconazole chequerboard, 96 h): 1520 µg/mL | MIC50 (CA01, 96 h, Range, Amphotericin B chequerboard, 96 h): 156 to 1250 µg/mL | MIC50 (CA01, 96 h, Range, Caspofungin chequerboard, 96 h): 156 to 2500 µg/mL | MIC50 (CA01, 96 h, Range, Fluconazole chequerboard, 96 h): 312 to 1250 µg/mL | MIC50 (CA01, 96 h, Range, Itraconazole chequerboard, 96 h): 312 to 2500 µg/mL | MIC50 (CA01, 120 h, GEOMEAN, Amphotericin B chequerboard, 120 h): 743 µg/mL | MIC50 (CA01, 120 h, GEOMEAN, Caspofungin chequerboard, 120 h): 1440 µg/mL | MIC50 (CA01, 120 h, GEOMEAN, Fluconazole chequerboard, 120 h): 1770 µg/mL | MIC50 (CA01, 120 h, GEOMEAN, Itraconazole chequerboard, 120 h): 1250 µg/mL | MIC50 (CA01, 120 h, MEAN, Amphotericin B chequerboard, 120 h): 977 µg/mL | MIC50 (CA01, 120 h, MEAN, Caspofungin chequerboard, 120 h): 1750 µg/mL | MIC50 (CA01, 120 h, MEAN, Fluconazole chequerboard, 120 h): 1880 µg/mL | MIC50 (CA01, 120 h, MEAN, Itraconazole chequerboard, 120 h): 1500 µg/mL | MIC50 (CA01, 120 h, Range, Amphotericin B chequerboard, 120 h): 156 to 1250 µg/mL | MIC50 (CA01, 120 h, Range, Caspofungin chequerboard, 120 h): 625 to 2500 µg/mL | MIC50 (CA01, 120 h, Range, Fluconazole chequerboard, 120 h): 1250 to 2500 µg/mL | MIC50 (CA01, 120 h, Range, Itraconazole chequerboard, 120 h): 625 to 2500 µg/mL | MIC50 (CA01, 144 h, GEOMEAN, Amphotericin B chequerboard, 144 h): 787 µg/mL | MIC50 (CA01, 144 h, GEOMEAN, Caspofungin chequerboard, 144 h): 1580 µg/mL | MIC50 (CA01, 144 h, GEOMEAN, Fluconazole chequerboard, 144 h): 1490 µg/mL | MIC50 (CA01, 144 h, GEOMEAN, Itraconazole chequerboard, 144 h): 1770 µg/mL | MIC50 (CA01, 144 h, MEAN, Amphotericin B chequerboard, 144 h): 1300 µg/mL | MIC50 (CA01, 144 h, MEAN, Caspofungin chequerboard, 144 h): 1880 µg/mL | MIC50 (CA01, 144 h, MEAN, Fluconazole chequerboard, 144 h): 1720 µg/mL | MIC50 (CA01, 144 h, MEAN, Itraconazole chequerboard, 144 h): 2030 µg/mL | MIC50 (CA01, 144 h, Range, Amphotericin B chequerboard, 144 h): 156 to 2500 µg/mL | MIC50 (CA01, 144 h, Range, Caspofungin chequerboard, 144 h): 625 to 2500 µg/mL | MIC50 (CA01, 144 h, Range, Fluconazole chequerboard, 144 h): 625 to 2500 µg/mL | MIC50 (CA01, 144 h, Range, Itraconazole chequerboard, 144 h): 625 to 2500 µg/mL | NM001 MIC100 in Combination (GEOMEAN, in combination with Amphotericin B, 72 h): 39 µg/mL | NM001 MIC50 in Combination (GEOMEAN, in combination with Amphotericin B, 96 h): 55 µg/mL | NM001 MIC50 in Combination (GEOMEAN, in combination with Amphotericin B, 120 h): 156 µg/mL | NM001 MIC50 in Combination (GEOMEAN, in combination with Amphotericin B, 144 h): 442 µg/mL | NM001 MIC100 in Combination (GEOMEAN, in combination with Caspofungin, 72 h): 78 µg/mL | NM001 MIC50 in Combination (GEOMEAN, in combination with Caspofungin, 96 h): 90 µg/mL | NM001 MIC50 in Combination (GEOMEAN, in combination with Caspofungin, 120 h): 118 µg/mL | NM001 MIC50 in Combination (GEOMEAN, in combination with Caspofungin, 144 h): 394 µg/mL | NM001 MIC100 in Combination (GEOMEAN, in combination with Fluconazole, 72 h): 312.5 µg/mL | NM001 MIC50 in Combination (GEOMEAN, in combination with Fluconazole, 96 h): 139 µg/mL | NM001 MIC50 in Combination (GEOMEAN, in combination with Fluconazole, 120 h): 263 µg/mL | NM001 MIC50 in Combination (GEOMEAN, in combination with Fluconazole, 144 h): 263 µg/mL | NM001 MIC100 in Combination (GEOMEAN, in combination with Itraconazole, 72 h): 179 µg/mL | NM001 MIC50 in Combination (GEOMEAN, in combination with Itraconazole, 96 h): 78 µg/mL | NM001 MIC50 in Combination (GEOMEAN, in combination with Itraconazole, 120 h): 136 µg/mL | NM001 MIC50 in Combination (GEOMEAN, in combination with Itraconazole, 144 h): 197 µg/mL | NM001 MIC100 in Combination (MEAN, in combination with Amphotericin B, 72 h): 39 µg/mL | NM001 MIC50 in Combination (MEAN, in combination with Amphotericin B, 96 h): 59 µg/mL | NM001 MIC50 in Combination (MEAN, in combination with Amphotericin B, 120 h): 221 µg/mL | NM001 MIC50 in Combination (MEAN, in combination with Amphotericin B, 144 h): 469 µg/mL | NM001 MIC100 in Combination (MEAN, in combination with Caspofungin, 72 h): 78 µg/mL | NM001 MIC50 in Combination (MEAN, in combination with Caspofungin, 96 h): 102 µg/mL | NM001 MIC50 in Combination (MEAN, in combination with Caspofungin, 120 h): 148 µg/mL | NM001 MIC50 in Combination (MEAN, in combination with Caspofungin, 144 h): 417 µg/mL | NM001 MIC100 in Combination (MEAN, in combination with Fluconazole, 72 h): 365 µg/mL | NM001 MIC50 in Combination (MEAN, in combination with Fluconazole, 96 h): 176 µg/mL | NM001 MIC50 in Combination (MEAN, in combination with Fluconazole, 120 h): 312.5 µg/mL | NM001 MIC50 in Combination (MEAN, in combination with Fluconazole, 144 h): 400 µg/mL | NM001 MIC100 in Combination (MEAN, in combination with Itraconazole, 72 h): 203 µg/mL | NM001 MIC50 in Combination (MEAN, in combination with Itraconazole, 96 h): 89 µg/mL | NM001 MIC50 in Combination (MEAN, in combination with Itraconazole, 120 h): 156.25 µg/mL | NM001 MIC50 in Combination (MEAN, in combination with Itraconazole, 144 h): 208 µg/mL | NM001 MIC100 in Combination (Range, in combination with Amphotericin B, 72 h): 39 µg/mL | NM001 MIC50 in Combination (Range, in combination with Amphotericin B, 96 h): 39.0625 to 78.125 µg/mL | NM001 MIC50 in Combination (Range, in combination with Amphotericin B, 120 h): 39.06 to 312.5 µg/mL | NM001 MIC50 in Combination (Range, in combination with Amphotericin B, 144 h): 312.5 to 625 µg/mL | NM001 MIC100 in Combination (Range, in combination with Caspofungin, 72 h): 78 µg/mL | NM001 MIC50 in Combination (Range, in combination with Caspofungin, 96 h): 39.0625 to 156.25 µg/mL | NM001 MIC50 in Combination (Range, in combination with Caspofungin, 120 h): 39.06 to 312.5 µg/mL | NM001 MIC50 in Combination (Range, in combination with Caspofungin, 144 h): 312.5 to 625 µg/mL | NM001 MIC100 in Combination (Range, in combination with Fluconazole, 72 h): 156 to 625 µg/mL | NM001 MIC50 in Combination (Range, in combination with Fluconazole, 96 h): 39.06 to 156.25 µg/mL | NM001 MIC50 in Combination (Range, in combination with Fluconazole, 120 h): 156.25 to 625 µg/mL | NM001 MIC50 in Combination (Range, in combination with Fluconazole, 144 h): 39.0625 to 625 µg/mL | NM001 MIC100 in Combination (Range, in combination with Itraconazole, 72 h): 78 to 312.5 µg/mL | NM001 MIC50 in Combination (Range, in combination with Itraconazole, 96 h): 39.06 to 156.25 µg/mL | NM001 MIC50 in Combination (Range, in combination with Itraconazole, 120 h): 78.13 to 312.5 µg/mL | NM001 MIC50 in Combination (Range, in combination with Itraconazole, 144 h): 156.25 to 312.5 µg/mL
